Legend:
[1] = Inhibition of the oxidation of lipids: SA-PC in cyclohexane (Method IV); type: biochemical; details: 37° C., absorption at 234 nm
Method: Oxidation of 1-stearoyl-2-arachidonoylphosphatidylcholine (SA-PC) in cyclohexane (37° C.). 100 mcl of a SA-PC solution (10 mg/ml of CHCl3) were evaporated by blowing (argon) and the residue was taken up in 1 ml of cyclohexane. After adding an amount of antioxidant which would also dissolve in olive oil (cf. Table 1), the absorption was measured at 234 nm (Perkin Elmer 5528 spektrophotometer, Uberlingan, FRG) and the solvent was then evaporated by blowing with air. After a fur%her 24 hours standing in an open vessel, the residue was again dissolved in i ml of cyclohexane and the absorption at 234 nm was measured as a measurement of the oxidized SA-PC.

[2] = Use as an additive in frying fat: color change of butter (Method II); details: 1% (weight/weight) in butter
Method: Use as an additive in frying fat: Samples of commercially available German non-blended butter were melted and in each case 1% (weight/weight) of BHT (=butylated hydroxytoluene) or 2,6-di-tert.-butyl-4-(7-nonynoyl)-phenol [=compound according to Example 17] or ethyl 2-(3,5-di-tert.-butyl-4-hydroxybenzyl)-3-oxo-docosanoate [=compound according to Example 18] or N-octadecyl-DL-α-lipoic acid amide [=compound according to Example 52] was added and the mixture was used in the customary manner as frying fat. […] The better protective action of the […] probably comes about as a result of their lipophilic side chains and, therefore, improved lipophilic interaction. The advantageous action of N-octadecyl-DL-α-lipoic acid amide is particularly surprising, although this preparation has no recognizable antioxidative component.

[3] = Solubility in water and olive oil (Method III)
Method: a) Preparation of olive oil or aqueous solutions. 1 ml of olive oil or I ml of double-distilled water (or dilute NaOH pH=7.6) was added to 1 mg or 10 mg or 50 mg of the respective compound at 37° C. and it was checked whether a clear solution was obtained. The optionally centrifuged and decanted olive oil solutions were heated for 5 minutes using a Bunsen burner and the degree of browning of the olive oil was determined. […] Samples having poor protective action are given a (*) in the table (see below).

[4] = tested on: thrombus formation in rats; assay: Laser-induced thrombosis in rats in vivo (Method VIII); design: species or system rat; details: 30 mg/kg oral, laser induction 60 min after administration
Method: The experimental procedure was carried out in every detail as described in U.S. Pat. No. 4,694,024. Laser induction took place 60 min after oral administration of the antioxidants.

[5] = tested on: proneness to thrombosis of hyperlipidemic infarct-sensitive rats; assay: Long-term administration in the hyperlipidemic infarct-sensitive rat: laser-induced thrombosis test (Method XI); type: in vivo; details: 50 mg/kg oral, after 9 days
Method: Male infarct-sensitive rats about 200 g in weight (Mollegaard, Ejby, Denmark) were treated orally once daily with 1 ml/100 g of body weight of a standard diet (100 g of cholic acid, 100 g of cholesterol, 30 g of propylthiouracil to 1 l of sesame oil). While no test substance was administered to the control group I (cf. the following Table), the standard diet in the pharmaceutical experiments II-IV additionally contained 50 mg/kg of body weight of the test substances indicated in the table below. After 9 days, the rats were examined, as described above, in the laser-induced thrombosis test, and the total cholesterol content of the serum was determined.

[6] = Long-term administration in the hyperlipidemic infarct-sensitive rat: total serum cholesterol (Method XI); type: in vivo; details: 50 mg/kg oral, after 9 days; control 286
Method: While no test substance was administered to the control group I (cf. the following Table), the standard diet in the pharmaceutical experiments II-IV additionally contained 50 mg/kg of body weight of the test substances indicated in the table below. After 9 days, the rats were examined, as described above, in the laser-induced thrombosis test, and the total cholesterol content of the serum was determined. […] Moreover, the substances according to the invention exerted an advantageous hypolipidemic effect.

[7] = Antioxidative radical scavenger properties by the diphenylpicrylhydrazine (DPPH) method (Method I); type: biochemical; details: absolute ethanol
Method: Antioxidative radical scavenger properties by the diphenylpicrylhydrazine (DPPH) method: The determination was carried out spectrophotometrically (PMQ4 from Zeiss, Oberkochen, FRG) by the method described in Smith and Reeves, Biochemical Pharmacology 36 (1987) pp. 1457-1460. The measurement is the rate constant determined graphically (concentration versus conversion rate) in a known manner, measured in absolute ethanol.

[8] = olive oil, organic solvent or mixture

Compound: CCCCCCCCCCCCCCCCCCNC(=O)CCCCC1CCSS1 (racemic) [Example 52, N-octadecyl-DL-α-lipoic acid amide]
- prevention of the oxidation of SA-PC, reduced dithiol vs. corresponding oxidized dithio compounds [1]: possible to prevent the oxidation of SA-PC Just as effectively
- color change of frying fat after the frying procedure [2]: substantially lower color change
- solubility [3, 8]: > 10000 µg/mL
- solubility ([3]; water): < 100 µg/mL
- Reduction of thrombus formation [4]: 14%

Compound: Cc1c(C)c2c(c(C)c1O)CCC(C)(C(=O)NCCCNC(=O)CC[C@@H](C)[C@H]1CC[C@H]3[C@@H]4CC[C@@H]5C[C@H](O)CC[C@]5(C)[C@H]4C[C@H](O)[C@]13C)O2 (stereo partly shown) [Example 2]
- Reduction in proneness to thrombosis vs. control (%) [5]: 50%
- Total cholesterol [6]: 270 mg/dL
- solubility [3, 8]: > 10000 µg/mL
- solubility ([3]; water): > 100 µg/mL
- Reduction of thrombus formation [4]: 14%

Compound: CCCCCCCCCCCCCCCCCCOC(=O)CCCCC1CCSS1 (stereo not shown) [Example 51]
- prevention of the oxidation of SA-PC, reduced dithiol vs. corresponding oxidized dithio compounds [1]: possible to prevent the oxidation of SA-PC Just as effectively
- solubility [3, 8]: > 50000 µg/mL
- solubility ([3]; water): < 100 µg/mL

Compound: Vitamin E [reference compound]
- Reduction in proneness to thrombosis vs. control (%) [5]: 26%
- Total cholesterol [6]: 278 mg/dL
- Solubility, Olive oil ([3]; olive oil): > 10000 µg/mL
- Solubility, Water ([3]; water): < 100 µg/mL
- Reduction of thrombus formation [4]: 5%

Compound: CCCCCCCCCCCCCCCCCCNC(=O)CCCCC(S)CCS (racemic) [Example 49]
- prevention of the oxidation of SA-PC, reduced dithiol vs. corresponding oxidized dithio compounds [1]: possible to prevent the oxidation of SA-PC Just as effectively
- Reduction in proneness to thrombosis vs. control (%) [5]: 34%
- Total cholesterol [6]: 259 mg/dL
- solubility [3, 8]: > 10000 µg/mL
- solubility ([3]; water): < 100 µg/mL
- Reduction of thrombus formation [4]: 20%

Compound: O=C1O[C@H]([C@@H](O)CO)C(O)=C1O [Ascorbic acid]
- Reaction with DPPH (rate constant) [7]: 2.99

Compound: CCCCCCCCCCCCCCCCCCOC(=O)CCCCC(S)CCS (stereo not shown) [Example 50]
- prevention of the oxidation of SA-PC, reduced dithiol vs. corresponding oxidized dithio compounds [1]: possible to prevent the oxidation of SA-PC Just as effectively
- solubility [3, 8]: > 50000 µg/mL
- solubility ([3]; water): < 100 µg/mL
